Data from paper PMC12560751 (RSC Advances, 2025).

Assays:
Type in all cases: biochemical
AChE = AChE (Homo sapiens, UniProt P22303); experiment: Anticholinesterase activity, modified colorimetric Ellman method; details: for inhibition at 100 µM / inhibition at 1000 µM: read-out: AChE % inhibition; for Selectivity and indexes: selective for AChE (over BChE)
BChE = BChE (Homo sapiens, UniProt P06276); experiment: as above; details: for inhibition at 100 µM / inhibition at 1000 µM: read-out: BChE % inhibition
hMAO A = biological target: T1, hMAO A (Homo sapiens, UniProt P21397); experiment: MAO A inhibition, fluorometric method; details: for inhibition at 100 µM / inhibition at 1000 µM: read-out: MAO A % inhibition; for Selectivity and indexes: selective for MAO-A (over MAO B)
T1 sequence (P21397 1-527): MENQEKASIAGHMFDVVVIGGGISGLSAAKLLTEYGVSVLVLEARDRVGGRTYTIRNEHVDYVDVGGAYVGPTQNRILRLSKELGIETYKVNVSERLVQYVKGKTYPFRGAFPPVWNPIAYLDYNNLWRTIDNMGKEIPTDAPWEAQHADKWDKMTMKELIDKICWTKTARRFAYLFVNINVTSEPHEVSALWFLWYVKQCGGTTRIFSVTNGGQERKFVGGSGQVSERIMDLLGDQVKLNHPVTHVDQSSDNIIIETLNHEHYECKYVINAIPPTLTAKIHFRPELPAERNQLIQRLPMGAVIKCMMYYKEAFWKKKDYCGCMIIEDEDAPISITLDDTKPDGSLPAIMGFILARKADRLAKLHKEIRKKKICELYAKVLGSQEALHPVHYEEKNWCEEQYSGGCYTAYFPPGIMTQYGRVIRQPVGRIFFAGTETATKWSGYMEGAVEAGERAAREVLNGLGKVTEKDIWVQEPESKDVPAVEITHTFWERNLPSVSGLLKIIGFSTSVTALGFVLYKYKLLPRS

recombinant hMAO B = biological target: T2, recombinant hMAO B (Homo sapiens, UniProt P27338); experiment: MAO B inhibition, fluorometric method; details: for inhibition at 100 µM / inhibition at 1000 µM: read-out: MAO B % inhibition; for Selectivity and indexes: selective for MAO-B (over MAO A)
T2 sequence (P27338 1-520): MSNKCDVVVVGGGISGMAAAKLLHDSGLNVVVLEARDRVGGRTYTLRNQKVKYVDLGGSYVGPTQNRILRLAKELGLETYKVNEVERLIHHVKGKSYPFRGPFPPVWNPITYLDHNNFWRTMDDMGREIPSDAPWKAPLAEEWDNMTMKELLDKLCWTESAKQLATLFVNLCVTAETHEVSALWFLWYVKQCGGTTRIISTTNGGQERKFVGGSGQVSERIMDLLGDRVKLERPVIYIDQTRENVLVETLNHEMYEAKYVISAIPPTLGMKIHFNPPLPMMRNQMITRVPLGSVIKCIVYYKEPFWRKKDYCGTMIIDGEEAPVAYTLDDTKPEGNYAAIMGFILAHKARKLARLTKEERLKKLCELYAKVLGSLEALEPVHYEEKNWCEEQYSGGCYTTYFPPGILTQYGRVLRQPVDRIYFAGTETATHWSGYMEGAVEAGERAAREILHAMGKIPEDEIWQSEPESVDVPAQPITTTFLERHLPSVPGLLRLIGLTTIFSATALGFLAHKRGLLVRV

Sequence of AChE (P22303 32-614): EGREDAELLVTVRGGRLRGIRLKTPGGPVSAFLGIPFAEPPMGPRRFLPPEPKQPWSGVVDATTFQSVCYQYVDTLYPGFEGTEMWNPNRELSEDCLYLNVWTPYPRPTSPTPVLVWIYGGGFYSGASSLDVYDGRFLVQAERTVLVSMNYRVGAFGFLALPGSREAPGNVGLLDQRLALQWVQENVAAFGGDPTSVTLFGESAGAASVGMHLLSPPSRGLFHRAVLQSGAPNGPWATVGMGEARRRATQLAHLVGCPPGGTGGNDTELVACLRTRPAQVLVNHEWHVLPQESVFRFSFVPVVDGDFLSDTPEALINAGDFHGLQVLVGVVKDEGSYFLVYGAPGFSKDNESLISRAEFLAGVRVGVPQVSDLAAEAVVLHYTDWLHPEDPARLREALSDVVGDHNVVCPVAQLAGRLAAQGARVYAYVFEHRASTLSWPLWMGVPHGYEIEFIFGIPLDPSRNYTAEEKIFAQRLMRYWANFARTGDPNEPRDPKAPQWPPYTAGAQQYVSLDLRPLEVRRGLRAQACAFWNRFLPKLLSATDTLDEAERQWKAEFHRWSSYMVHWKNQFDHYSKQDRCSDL
Sequence of BChE (P06276 29-602, species assumed): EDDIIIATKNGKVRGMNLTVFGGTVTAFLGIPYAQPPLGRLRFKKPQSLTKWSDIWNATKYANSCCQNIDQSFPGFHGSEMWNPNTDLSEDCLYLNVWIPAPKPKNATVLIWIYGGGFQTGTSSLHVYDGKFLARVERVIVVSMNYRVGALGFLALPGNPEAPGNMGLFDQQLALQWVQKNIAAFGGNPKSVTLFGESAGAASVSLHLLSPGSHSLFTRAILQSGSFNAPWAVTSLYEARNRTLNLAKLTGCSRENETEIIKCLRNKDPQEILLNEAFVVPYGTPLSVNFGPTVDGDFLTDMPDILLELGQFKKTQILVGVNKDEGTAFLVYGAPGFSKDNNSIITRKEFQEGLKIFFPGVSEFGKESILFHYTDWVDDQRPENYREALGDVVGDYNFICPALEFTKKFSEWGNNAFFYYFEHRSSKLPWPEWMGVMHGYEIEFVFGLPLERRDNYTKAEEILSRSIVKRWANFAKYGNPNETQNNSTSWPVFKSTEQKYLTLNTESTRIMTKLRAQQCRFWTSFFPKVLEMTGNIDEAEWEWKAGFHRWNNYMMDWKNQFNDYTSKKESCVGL

Row | SMILES | IC50 (AChE) | inhibition at 100 µM (AChE) | inhibition at 1000 µM (AChE) | Selectivity and indexes (AChE) | IC50 (BChE) | inhibition at 100 µM (BChE) | inhibition at 1000 µM (BChE) | IC50 (hMAO A) | inhibition at 100 µM (hMAO A) | inhibition at 1000 µM (hMAO A) | IC50 (recombinant hMAO B; MAO B IC50, tables) | inhibition at 100 µM (recombinant hMAO B) | inhibition at 1000 µM (recombinant hMAO B) | Selectivity and indexes (recombinant hMAO B) | Selectivity and indexes (hMAO A) | IC50 (recombinant hMAO B; MAO B IC50, text) | inhibition at 10 µM (recombinant hMAO B; read-out: MAO B inhibition)
1 | COCCN1CCN(CC(=O)Nc2ccc(C=CC(=O)c3ccc(OC)c(OC)c3)cc2)CC1 [Compound 4h, N-(4-(3-(3,4-Dimethoxyphenyl)-3-oxoprop-1-en-1-yl)phenyl)-2-(4-(2-methoxyethyl)piperazin-1-yl)acetamide] | 0.12 ± 0.005 µM | 86.5 ± 1.35% | 90.6 ± 2.75% | AChE/>1000 | > 1000 µM | 21.5 ± 0.874% | 30.2 ± 1.13% | > 100 µM | 28.6 ± 1.05% | 59.9 ± 2.24% | > 100 µM | 41.3 ± 0.916% | 79.5 ± 2.86% | – | – | – | –
2 | COc1ccc(C(=O)C=Cc2ccc(NC(=O)CN3CCN(CCN(C)C)CC3)cc2)cc1OC [Compound 4j, N-(4-(3-(3,4-Dimethoxyphenyl)-3-oxoprop-1-en-1-yl)phenyl)-2-(4-(2-(dimethylamino)ethyl)piperazin-1-yl)acetamide] | 0.043 ± 0.002 µM | 92.2 ± 3.48% | 94 ± 1.94% | AChE/>1000 | > 1000 µM | 28.4 ± 1.16% | 42.7 ± 2.06% | > 1000 µM | 32.3 ± 1.14% | 47.7 ± 1.94% | > 100 µM | 40.1 ± 1.06% | 82.2 ± 3.03% | MAO-B/>10 | – | – | –
3 | COc1ccc(C(=O)C=Cc2ccc(NC(=O)CN3CCN(C4CCCC4)CC3)cc2)cc1OC [Compound 4l, 2-(4-Cyclopentylpiperazin-1-yl)-N-(4-(3-(3,4-dimethoxyphenyl)-3-oxoprop-1-en-1-yl)phenyl)acetamide] | > 100 µM | 40.3 ± 1.82% | 76.9 ± 2.36% | – | > 1000 µM | 32.7 ± 1.35% | 41 ± 2% | > 1000 µM | 30.4 ± 1.25% | 36.7 ± 0.984% | > 1000 µM | 29.7 ± 0.841% | 46.7 ± 1.15% | – | – | – | –
4 | COc1ccc(C(=O)C=Cc2ccc(NC(=O)CN3CCN(CCCN(C)C)CC3)cc2)cc1OC [Compound 4k, N-(4-(3-(3,4-Dimethoxyphenyl)-3-oxoprop-1-en-1-yl)phenyl)-2-(4-(3-(dimethylamino)propyl)piperazin-1-yl)acetamide] | 0.039 ± 0.001 µM | 94.1 ± 2.96% | 97.4 ± 2.81% | AChE/>1000 | > 1000 µM | 29 ± 1.04% | 46 ± 1.87% | > 100 µM | 41.3 ± 1.94% | 63 ± 2.86% | > 1000 µM | 36.1 ± 0.964% | 48.7 ± 1.84% | – | MAO-A/>10 | – | –
5 | COc1ccc(C(=O)C=Cc2ccc(NC(=O)CN3CCN(CCCO)CC3)cc2)cc1OC [Compound 4i, N-(4-(3-(3,4-Dimethoxyphenyl)-3-oxoprop-1-en-1-yl)phenyl)-2-(4-(3-hydroxypropyl)piperazin-1-yl)acetamide] | 0.084 ± 0.003 µM | 90.5 ± 2.83% | 94.2 ± 2.06% | AChE/>1000 | > 1000 µM | 23.6 ± 1.07% | 39.6 ± 1.34% | > 1000 µM | 29.1 ± 0.962% | 41.1 ± 2.06% | > 100 µM | 47.4 ± 1.62% | 74.1 ± 2.42% | MAO-B/>10 | – | – | –
6 | CCN1CCN(CC(=O)Nc2ccc(C=CC(=O)c3ccc(OC)c(OC)c3)cc2)CC1 [Compound 4b, N-(4-(3-(3,4-Dimethoxyphenyl)-3-oxoprop-1-en-1-yl)phenyl)-2-(4-ethylpiperazin-1-yl)acetamide] | 0.093 ± 0.003 µM | 88.7 ± 2.23% | 92.6 ± 2.45% | AChE/>1000 | > 1000 µM | 27 ± 0.877% | 31.1 ± 1.03% | > 100 µM | 31.2 ± 1.24% | 53.1 ± 2.17% | > 100 µM | 40.1 ± 1.97% | 60.4 ± 2.27% | – | – | – | –
7 | C#CCN1CCN(CC(=O)Nc2ccc(C=CC(=O)c3ccc(OC)c(OC)c3)cc2)CC1 [Compound 4e, N-(4-(3-(3,4-Dimethoxyphenyl)-3-oxoprop-1-en-1-yl)phenyl)-2-(4-(prop-2-yn-1-yl)piperazin-1-yl)acetamide] | > 100 µM | 39.4 ± 1.32% | 67.2 ± 2.11% | – | > 1000 µM | 21.9 ± 0.835% | 38 ± 0.964% | > 100 µM | 44.2 ± 1.87% | 61.4 ± 1.95% | > 100 µM | 39.3 ± 1.48% | 78.2 ± 2.48% | – | – | – | –
8 | COc1ccc(C(=O)C=Cc2ccc(NC(=O)CN3CCN(C=O)CC3)cc2)cc1OC [Compound 4f, N-(4-(3-(3,4-Dimethoxyphenyl)-3-oxoprop-1-en-1-yl)phenyl)-2-(4-formylpiperazin-1-yl)acetamide] | 0.048 ± 0.002 µM | 94.8 ± 3.96% | 96.8 ± 2.93% | AChE/>1000 | > 1000 µM | 24.3 ± 0.829% | 31.7 ± 1.37% | > 1000 µM | 28.8 ± 0.861% | 40.8 ± 0.955% | 0.137 ± 0.005 µM | 88.6 ± 1.83% | 90.7 ± 2.62% | MAO-B/>1000 | – | < 1 µM | 88.6 ± 1.83%
9 | COc1ccc(C(=O)C=Cc2ccc(NC(=O)CN3CCN(C(C)C)CC3)cc2)cc1OC [Compound 4c, N-(4-(3-(3,4-Dimethoxyphenyl)-3-oxoprop-1-en-1-yl)phenyl)-2-(4-isopropylpiperazin-1-yl)acetamide] | > 100 µM | 48.2 ± 1.98% | 79.2 ± 3.03% | – | > 1000 µM | 25.5 ± 1.1% | 46 ± 1.92% | > 1000 µM | 39 ± 0.933% | 47.4 ± 0.836% | > 1000 µM | 28.9 ± 1.02% | 41.1 ± 0.941% | – | – | – | –
10 | COc1ccc(C(=O)C=Cc2ccc(NC(=O)CN3CCN(S(C)(=O)=O)CC3)cc2)cc1OC [Compound 4m, N-(4-(3-(3,4-Dimethoxyphenyl)-3-oxoprop-1-en-1-yl)phenyl)-2-(4-(methylsulfonyl)piperazin-1-yl)acetamide] | 0.158 ± 0.006 µM | 87.6 ± 1.72% | 89.4 ± 2.59% | AChE/>1000 | > 1000 µM | 33.3 ± 1.22% | 37.3 ± 0.961% | > 1000 µM | 33.6 ± 1.32% | 39.4 ± 1.37% | > 100 µM | 29 ± 0.826% | 58 ± 1.63% | MAO-B/>10 | – | – | –
11 | COc1ccc(C(=O)C=Cc2ccc(NC(=O)CN3CCN(C)CC3)cc2)cc1OC [Compound 4a, N-(4-(3-(3,4-Dimethoxyphenyl)-3-oxoprop-1-en-1-yl)phenyl)-2-(4-methylpiperazin-1-yl)acetamide] | 0.068 ± 0.003 µM | 90.3 ± 1.86% | 93.5 ± 3.16% | AChE/>1000 | > 1000 µM | 24.6 ± 0.974% | 42.5 ± 1.85% | > 1000 µM | 38.7 ± 1.06% | 47.7 ± 2.04% | 0.274 ± 0.012 µM | 80.5 ± 2.24% | 84 ± 1.93% | MAO-B/>1000 | – | < 1 µM | –
12 | C=CCN1CCN(CC(=O)Nc2ccc(C=CC(=O)c3ccc(OC)c(OC)c3)cc2)CC1 [Compound 4d, 2-(4-Allylpiperazin-1-yl)-N-(4-(3-(3,4-dimethoxyphenyl)-3-oxoprop-1-en-1-yl)phenyl)acetamide] | > 100 µM | 40 ± 1.02% | 80.7 ± 3.34% | – | > 1000 µM | 20.1 ± 0.964% | 40.3 ± 1.21% | > 100 µM | 41.4 ± 1.96% | 55 ± 2.06% | > 1000 µM | 30.1 ± 0.957% | 36.7 ± 1.04% | – | MAO-A/>10 | – | –
